Assays:
[1] = tested on: CYPES; assay: Pre-emergence herbicidal action against CYPES; assay type: in vivo; settings: Cyperus esculentus, 504 h; for pest or weed control at 20 g/ha / pest or weed control at 80 g/ha: scored visually after 3 weeks, 100% = plants have died, 0% = like control plants
In short: (§1)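 Seeds sown in sandy loam, soil-covered; compound sprayed on soil surface pre-emergence. Application: WP/EC, 600–800 l/ha, 0.2% wetting agent. Readout: visual % damage at 3 weeks.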

[2] = tested on: PHBPU; assay: Pre-emergence herbicidal action against PHBPU; assay type: in vivo, Pharbitis purpurea; settings: Ipomoea purpurea, 504 h; for pest or weed control at 80 g/ha: dosage 80 g/ha; for pest or weed control at 320 g/ha: dosage 320 g/ha
In short: as §1

[3] = tested on: ALOMY; assay: Post-emergence herbicidal action against ALOMY; assay type: in vivo, Alopecurus myosuroides; settings: Alopecurus myosuroides, 504 h, visual assessment about 3 weeks after treatment vs untreated controls; for pest or weed control at 5 g/ha: dosage 5 g/ha; for pest or weed control at 20 g/ha: dosage 20 g/ha; for pest or weed control at 80 g/ha: dosage 80 g/ha
In short: (§2)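 Percent herbicidal action is rated by eye about 3 weeks after treatment against untreated controls, where 100% means dead plants and 0% means like controls. Plants in sandy loam are sprayed on green parts at the one-leaf stage with aqueous WP or EC preparations at 600 to 800 l/ha plus 0.2% wetting agent.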

[4] = tested on: AVEFA; assay: Post-emergence herbicidal action against AVEFA; assay type: in vivo, Avena fatua; settings: Avena fatua, 504 h, visual assessment about 3 weeks after treatment, 100% = plants have died, 0% = like control plants
In short: as §2

[5] = tested on: CYPES; assay: Post-emergence herbicidal action against CYPES; assay type: in vivo, Cyperus esculentus; settings: 80 g/ha, visual assessment about 3 weeks after treatment, 100% = plants have died, 0% = like control plants
Procedure: (§3) Seeds of monocotyledonous and dicotyledonous weed and crop plants are laid out in sandy loam soil in wood-fiber pots, covered with soil and cultivated in a greenhouse under good growth conditions. 2 to 3 weeks after sowing, the test plants are treated at the one-leaf stage. The compounds of the invention, formulated in the form of wettable powders (WP) or as emulsion concentrates (EC), are then sprayed onto the green parts of the plants in the form of an aqueous suspension or emulsion at a water application rate equivalent to 600 to 800 l/ha, with addition of 0.2% wetting agent. After the test plants have been left to stand in the greenhouse under optimal growth conditions for about 3 weeks, the action of the preparations is assessed visually in comparison to untreated controls (herbicidal action in percent (%): 100% activity=the plants have died, 0% activity=like control plants). […] The tables below illustrate, in an illustrative manner, the post-emergence herbicidal action of the compounds of the invention, the herbicidal activity being stated in percent.

[6] = tested on: ECHCG; assay: Post-emergence herbicidal action against ECHCG; assay type: in vivo, Echinochloa crus-galli; settings: Echinochloa crus-galli, 504 h; for pest or weed control at 20 g/ha: dosage 20 g/ha; for pest or weed control at 80 g/ha: dosage 80 g/ha
In short: as §2

[7] = tested on: MATIN; assay: Post-emergence herbicidal action against MATIN; assay type: in vivo, Matricaria inodora; settings: Tripleurospermum inodorum, 504 h; for pest or weed control at 20 g/ha: dosage 20 g/ha; for pest or weed control at 80 g/ha: dosage 80 g/ha
In short: as §2

[8] = tested on: harmful plants; assay: Comparative experiments: herbicidal post-emergence action versus compounds known from D1 (WO 2012/028579 A1); assay type: in vivo; set-up: key to Herbicidal action against ALOMY / Herbicidal action against AVEFA / Herbicidal action against LOLRI / Herbicidal action against MATIN / Herbicidal action against HORMU / Herbicidal action against ECHCG / Herbicidal action against SETVI / Herbicidal action against ABUTH / Herbicidal action against STEME / Herbicidal action against VIOTR / Herbicidal action against AMARE: % herbicidal action: 100 = plants died, 0 = like untreated control; settings: 5 g a.i./ha
Procedure: as §3, with “percent. In the experiments that follow, herbicidal action of numerous inventive compounds and the structurally closest compounds known from D1 (WO 2012/028579 A1) were compared under the above-specified conditions by the pre-emergence and post-emergence method. The example numbers given in the tables relate to the compounds disclosed in the respective documents.” for “percent.”

| Compound | pest or weed control at 20 g/ha [1] [%] | pest or weed control at 80 g/ha [1] [%] | pest or weed control at 320 g/ha [1] [%] | pest or weed control at 80 g/ha [2] [%] | pest or weed control at 320 g/ha [2] [%] | pest or weed control at 5 g/ha [3] [%] | pest or weed control at 20 g/ha [3] [%] | pest or weed control at 80 g/ha [3] [%] | pest or weed control at 20 g/ha [4] [%] | pest or weed control at 80 g/ha [4] [%] | Post-emergence action at 80 g/ha against CYPES in % [5] [%] | pest or weed control at 20 g/ha [6] [%] | pest or weed control at 80 g/ha [6] [%] | pest or weed control at 20 g/ha [7] [%] | pest or weed control at 80 g/ha [7] [%] | Herbicidal action against ALOMY [8] | Herbicidal action against SETVI [8] | other results |
| --- | --- | --- | --- | --- | --- | --- | --- | --- | --- | --- | --- | --- | --- | --- | --- | --- | --- | --- |
| CNC(=O)c1c(C(F)(F)F)ccc(C(=O)Nc2nnnn2C)c1Cl [Example 1-129] | 90 | 90 | 100 | 90 | 100 | 90 | 100 | 100 | 100 | 100 | 80 | 100 | 100 | 90 | 100 | 90 | 100 | pest or weed control at 5 g/ha ([6]; dosage 5 g/ha): 100%; Herbicidal action against ABUTH ([8]; ABUTH): 100; Herbicidal action against ECHCG ([8]; ECHCG): 100; Herbicidal action against STEME ([8]; STEME): 100; Herbicidal action against VIOTR ([8]; VIOTR): 80 |
| CCn1nnnc1NC(=O)c1ccc(C(F)(F)F)c(C(=O)NC)c1Cl [Example 2-129] | 100 | 100 | 100 | 90 | 100 | 100 | 100 | 100 | 100 | 100 | 90 | 100 | 100 | 100 | 100 | 100 | 100 | pest or weed control at 5 g/ha ([4]; 5 g/ha): 100%; pest or weed control at 5 g/ha ([7]; dosage 5 g/ha): 80%; Herbicidal action against AMARE ([8]; AMARE): 100; Herbicidal action against AVEFA ([8]; AVEFA): 100; Herbicidal action against HORMU ([8]; HORMU): 80; Herbicidal action against MATIN ([8]; MATIN): 80 |

From patent US12655116B2, “Substituted isophthalic acid diamides” (Bayer Aktiengesellschaft, priority 2020, dated 2026)
